For 48 compounds, IC50 results are on record in patent US20110053897A1 (IRM LLC, priority 2009, published 2011).

The target of the test is T1, Syk kinase (Homo sapiens, UniProt P43405).
T1 construct: purchased
The test can be described thus: Syk kinase inhibition, Caliper LabChip off-chip mobility-shift kinase assay. The test is classed as biochemical. As to conditions: read-out: Syk Enzyme IC50. How it is done: Compounds of the examples and Table 1 provided herein were assayed to measure their capacity to inhibit Syk kinase.
Compounds of the examples and Table 1 provided herein were assessed for their ability to inhibit Syk kinase by utilizing Caliper Life Sciences' proprietary LabChip™ technology. The off-chip incubation mobility-shift kinase assay uses a microfluidic chip to measure the conversion of a fluorescent peptide substrate to a phosphorylated product. The reaction mixture, from a microtiter plate well, is introduced through a capillary sipper onto the chip, where the nonphosphorylated substrate and phosphorylated product are separated by electrophoresis and detected via laser induced fluorescence. […] The phosphorylated product migrates through the chip faster than the non-phosphorylated substrate, and signals from the two forms of the peptide appear as distinct peaks. Caliper's data analysis software (HTSWA) determines peak heights, from which the ratio of product to the peak sum P/(P+S) and percent (%) conversion is calculated. This value is used to compare compound wells to control wells present on the plate, and thereby determine the % inhibition values for the compound. The formula used to calculate % inhibition is as follows, where C100% is the average % conversion of the 100% activity wells and Co% is the average % conversion of the 0% activity wells: (1−(% conversionofsample−C0%)/(C100%−C0%))*100.
Compounds (10 mM stocks in 100% DMSO) are diluted to a final concentration of 5 μM for single point inhibition experiments, and a series dilution of 10, 3, 1, 0.3, 0.1, 0.03, 0.01, 0.003, 0.001, 0.0003, 0.0001, and 0.00003 μM were made for IC50 determination. Generally, 12 μL of enzyme buffer containing purified kinase (various amount; various suppliers), 100 mM HEPES, pH 7.5, 1 mM DTT (Calbiochem, 2333153), 10 mM MgCl2 (Sigma, M-1028) or 10 mM MnCl2 (Sigma, M-1787) (assay specific), and 0.002% Brij-35 (Sigma, B4184) are added to each well. Compound and enzyme are allowed to pre-incubate for 15 minutes. 12 μL of peptide/ATP buffer containing 100 mM HEPES, pH 7.5, 1.5 μM fluorescein-labeled peptide (specific to kinase of interest), ATP (at KM apparent, Sigma, A9187), and 0.002% Brij-35 is then added to each well to initiate the reaction. The final concentration of DMSO in the well is 4%. Generally, reactions are incubated for 1 to 1.5 hours at room temperature to obtain adequate conversion of peptide to phosphorylated product in the linear range of the reaction. Reactions are terminated with the addition of 45 μL of Stop Buffer (containing 20 mM EDTA). Plates are then read on the LabChip 3000 using a 12-sipper LabChip. % conversion values and % inhibition values are obtained as provided and IC50 curves of compounds are generated using GraphPad Prism Version 4 or 5.01, or XLfit Version 4.3.2. When using GraphPad Prism, a nonlinear curve fit using the sigmoidal dose response—variable slope fit was used to graph IC50 curves and determine IC50 values and hillslopes. When using XLfit, Fit Model 205 (4-Parameter Logistic Model) is used to generate and fit the IC50 curve.
As to `CNC(=O)C(C)(C)c1ccc(Nc2nc(-c3cnc4nccn4c3)cc3cc[nH]c(=O)c23)cc1` [compound 29], the IC50 turned out to be 30 nM. With `COCCN1CCC(c2ccc(Nc3nc(-c4cnc5nccn5c4)cc4cc[nH]c(=O)c34)cc2C)CC1` [compound 30] the figure was 8 nM; with `CN1CCC(Nc2nc(-c3cnc(N)nc3)cc3ccn(C)c(=O)c23)CC1` [compound 31], 1770 nM. With `CC(C)Nc1nc(-c2cnc(N)nc2)cc2ccn(CCO)c(=O)c12` [compound 32] the figure was 140 nM; with `CCN1CCN(CCc2ccc(Nc3nc(-c4cncc(OC)n4)cc4cc[nH]c(=O)c34)cc2)CC1C` (stereo not drawn) [compound 33], 34 nM; with `O=c1[nH]ccc2cc(-c3cncnc3)nc(Nc3ccc(CCn4cncn4)cc3)c12` [compound 34], 180 nM. Turning to `CC(C)Nc1nc(-c2cnc(N)nc2)cc2cc[nH]c(=O)c12` [compound 35], the IC50 worked out at 86 nM. As to `Cn1ccc2cc(-c3cnc(N)nc3)nc(NCCN3CCOCC3)c2c1=O` [compound 36], the IC50 is 428 nM.

As for `CCn1ccc2cc(-c3cnc(N)nc3)nc(NC3CC3)c2c1=O` [compound 37], the IC50 was 69 nM.

As for `Cn1ccc2cc(-c3cnc(N)nc3)nc(NC3CC3)c2c1=O` [compound 38], the IC50 is 62 nM. On to `COc1cncc(-c2cc3cc[nH]c(=O)c3c(Nc3ccc(CCCN4CCOCC4)cc3)n2)n1` [compound 40], for which the 50% inhibitory concentration (IC50) was 95 nM.

Take `CCN1CCN(CCCc2ccc(Nc3nc(-c4cncc(OC)n4)cc4cc[nH]c(=O)c34)cc2)CC1` [compound 41]: the IC50 turned out to be 42 nM.

Turning to `COc1cncc(-c2cc3cc[nH]c(=O)c3c(Nc3ccc(C4CCN(C5CS(=O)(=O)C5)CC4)c(C)c3)n2)n1` [compound 42], the IC50 worked out at 26 nM. The result for `COc1cncc(-c2cc3cc[nH]c(=O)c3c(Nc3ccc(CCN4CCC(F)(F)CC4)cc3)n2)n1` [compound 44] reads 638 nM. Turning to `COc1cncc(-c2cc3cc[nH]c(=O)c3c(Nc3ccc(CCN4CCN(C(C)=O)CC4)cc3)n2)n1` [compound 45], the IC50 was found to be 61 nM. In the case of `Cc1ccc(-c2cc3cc[nH]c(=O)c3c(Nc3ccc(C4CCN(CCCF)CC4)c(C)c3)n2)cn1` [compound 46], the IC50 worked out at 37 nM. The result for `COCCN1CCC(c2ccc(Nc3nc(-c4ccc(C)nc4)cc4cc[nH]c(=O)c34)cc2C)CC1` [compound 47] reads 12 nM; that for `O=c1[nH]ccc2cc(-c3cncc(NC4CC4)n3)nc(Nc3ccc(N4CCOCC4)cc3)c12` [compound 48], 83 nM; that for `COCC(=O)N1CCC(c2ccc(Nc3nc(-c4cncc(OC)n4)cc4cc[nH]c(=O)c34)cc2C)CC1` [compound 49], 75 nM. As to `CCOCC(=O)N1CCC(c2ccc(Nc3nc(-c4cncc(OC)n4)cc4cc[nH]c(=O)c34)cc2C)CC1` [compound 50], the IC50 amounted to 75 nM. For the compound `COc1cncc(-c2cc3cc[nH]c(=O)c3c(Nc3ccc(C4CCN(C(=O)C(C)(C)N)CC4)c(C)c3)n2)n1` [compound 52], the IC50 turned out to be 30 nM.

Consider `Nc1nccc(-c2cc3cc[nH]c(=O)c3c(Nc3ccc(N4CCOCC4)cc3)n2)n1` [compound 53], for which the IC50 was 494 nM. With `COc1cncc(-c2cc3cc[nH]c(=O)c3c(Nc3ccc(CCN4CCNCC4)cc3)n2)n1` [compound 54] the figure was 64 nM. `CCCN1CCC(c2ccc(Nc3nc(-c4cncc(OC)n4)cc4cc[nH]c(=O)c34)cc2C)CC1` [compound 55]: the IC50 was 33 nM.

Take `COc1cncc(-c2cc3cc[nH]c(=O)c3c(Nc3ccc([C@H]4CC[C@H](N5CCOCC5)CC4)cc3)n2)n1` [compound 56]: the IC50 came to 358 nM. With `COc1cncc(-c2cc3cc[nH]c(=O)c3c(Nc3ccc(C4CCN(C(=O)[C@@H](C)OC)CC4)c(C)c3)n2)n1` [compound 57], the IC50 came out at 47 nM. Consider `COc1cncc(-c2cc3cc[nH]c(=O)c3c(Nc3ccc(C4CCN(C(=O)[C@H](C)OC)CC4)c(C)c3)n2)n1` [compound 58], for which the IC50 is 40 nM. With `COCCNC(=O)c1ccc(Nc2nc(-c3cncc(OC)n3)cc3cc[nH]c(=O)c23)cc1` [compound 59], the IC50 was determined as 168 nM.

With `COc1cncc(-c2cc3cc[nH]c(=O)c3c(Nc3ccc(C4CCN(C(=O)C5(N)CC5)CC4)c(C)c3)n2)n1` [compound 60], the IC50 is 155 nM. Regarding `COc1cncc(-c2cc3cc[nH]c(=O)c3c(Nc3ccc(C4CCN(CCC(C)(C)C)CC4)c(C)c3)n2)n1` [compound 61], the IC50 is 158 nM. For the compound `COc1cncc(-c2cc3cc[nH]c(=O)c3c(Nc3ccc(C4CCN(C5CCCC5)CC4)c(C)c3)n2)n1` [compound 62], the IC50 came out at 11 nM.

Regarding `COc1cncc(-c2cc3cc[nH]c(=O)c3c(Nc3ccc(C4CCN(CCN(C)C)CC4)c(C)c3)n2)n1` [compound 63], the IC50 came out at 33 nM. As for `CCN1CCN(C(=O)c2ccc(Nc3nc(-c4cncc(OC)n4)cc4cc[nH]c(=O)c34)cc2)CC1` [compound 64], the IC50 was 35 nM.

As for `COc1cncc(-c2cc3cc[nH]c(=O)c3c(Nc3ccc(C4CCN(CCC#N)C4)cc3)n2)n1` (stereo not drawn) [compound 65], the IC50 was 30 nM. As to `COc1cncc(-c2cc3cc[nH]c(=O)c3c(Nc3ccc(CCN4CCN(CCC#N)CC4)cc3)n2)n1` [compound 66], the IC50 is 55 nM. The result for `Cc1cc(Nc2nc(-c3ccnc(N)n3)cc3cc[nH]c(=O)c23)ccc1C1CCN(CCC#N)CC1` [compound 67] reads 328 nM; that for `Cc1cc(Nc2nc(-c3cncc(NC4CC4)n3)cc3cc[nH]c(=O)c23)ccc1C1CCN(CCC#N)CC1` [compound 68], 89 nM.

Consider `Cc1cc(Nc2nc(-c3cnc(N)c(C)c3)cc3cc[nH]c(=O)c23)ccc1C1CCN(CCC#N)CC1` [compound 69], for which the IC50 is 28 nM.

On to `Cc1cc(-c2cc3cc[nH]c(=O)c3c(Nc3ccc(C4CCN(CCC#N)CC4)c(C)c3)n2)nc(N)n1` [compound 70], for which the IC50 is 344 nM. For `COCCN1CCC(c2ccc(Nc3nc(-c4cnc(C)nc4)cc4cc[nH]c(=O)c34)cc2C)CC1` [compound 71], the IC50 turned out to be 14 nM. With `Cc1ncc(-c2cc3cc[nH]c(=O)c3c(Nc3ccc(C4CCN(CCCF)CC4)c(C)c3)n2)cn1` [compound 72] the figure was 12 nM. For the compound `Cc1ncc(-c2cc3cc[nH]c(=O)c3c(Nc3ccc(C4CCN(CCC#N)CC4)c(C)c3)n2)cn1` [compound 73], the IC50 worked out at 81 nM. The result for `COCCNC(=O)c1ccc(Nc2nc(-c3cnc(C)nc3)cc3cc[nH]c(=O)c23)cc1` [compound 74] reads 29 nM; that for `COc1cncc(-c2cc3cc[nH]c(=O)c3c(Nc3ccc(C4CCN(C(=O)C5(C)COC5)CC4)c(C)c3)n2)n1` [compound 75], 53 nM. As to `CCC(C)C(=O)N1CCC(c2ccc(Nc3nc(-c4cncc(OC)n4)cc4cc[nH]c(=O)c34)cc2C)CC1` (stereo not drawn) [compound 76], the IC50 was determined as 225 nM. For `COc1cncc(-c2cc3cc[nH]c(=O)c3c(Nc3ccc(C4CCN(CC5CCCO5)CC4)c(C)c3)n2)n1` (stereo not drawn) [compound 77], the IC50 came out at 115 nM.

In the case of `COc1cncc(-c2cc3cc[nH]c(=O)c3c(Nc3ccc(C4CCN(CC5CC5(F)F)CC4)c(C)c3)n2)n1` (stereo not drawn) [compound 78], the IC50 amounted to 129 nM. With `COc1cncc(-c2cc3cc[nH]c(=O)c3c(Nc3ccc(C4CCN(CCF)CC4)c(C)c3)n2)n1` [compound 79] the figure was 27 nM.
